# Data taken from ChEMBL document CHEMBL4725344, “Development of Highly Potent Carbazole Amphiphiles as Membrane-Targeting Antimicrobials for Treating Gram-Positive Bacterial Infections” (J Med Chem, 2020).
# The source made the active and inactive calls. No cut-off for these calls is given here.
# Key:
# Staphylococcus aureus [1] = assay: Antibacterial activity against Staphylococcus aureus ATCC 29213 measured after 24 hrs by microplate reader analysis; type: functional
# Staphylococcus aureus [2] = assay: Antibacterial activity against methicillin-resistant Staphylococcus aureus N315 measured after 24 hrs by microplate reader analysis; type: functional
# Staphylococcus aureus [3] = assay: Antibacterial activity against methicillin-resistant Staphylococcus aureus NCTC 10442 measured after 24 hrs by microplate reader analysis; type: functional
# [4] = Hemolytic activity in rabbit erythrocytes measured after 1 hr by microplate reader analysis; type: ADME, cell-based, Oryctolagus cuniculus, Erythrocyte
# [5] = Selectivity index, ratio of HC50 for rabbit erythrocytes to MIC for Staphylococcus aureus ATCC 29213; type: toxicity; conditions: read-out: Selectivity Index
# [6] = Selectivity index, ratio of HC50 for rabbit erythrocytes to MIC for methicillin-resistant Staphylococcus aureus N315; type: toxicity; conditions: read-out: Selectivity Index
# [7] = Selectivity index, ratio of HC50 for rabbit erythrocytes to MIC for methicillin-resistant Staphylococcus aureus NCTC 10442; type: toxicity; conditions: read-out: Selectivity Index
# [8] = Hemolytic activity in rabbit erythrocytes assessed as hemolysis at 200 ug/ml measured after 1 hr by microplate reader analysis relative to control; type: ADME, cell-based, Oryctolagus cuniculus, Erythrocyte; conditions: at 200 µg/mL, read-out: Activity
# Staphylococcus aureus [9] = assay: Bactericidal activity against Staphylococcus aureus ATCC 29213 assessed as log reduction in bacterial count at 8 times MIC preincubated for 1 hr followed by replating on MHA medium measured after 24 hrs by time kill assay; type: functional; conditions: time 25 hrs
# Staphylococcus aureus [10] = assay: Bactericidal activity against Staphylococcus aureus ATCC 29213 assessed as log reduction in bacterial count at 4 times MIC preincubated for 4 hrs followed by replating on MHA medium measured after 24 hrs by time kill assay; type: functional; conditions: time 28 hrs
# Staphylococcus aureus [11] = assay: Antibacterial activity against Staphylococcus aureus ATCC 29213 at 0.5 times MIC passaged daily for 21 days; type: functional, organism-based; conditions: time 21.0 day
# Cell membrane [12] = assay: Induction of inner membrane permeabilization in Staphylococcus aureus ATCC 29213 measured for 1 hr by SYTOX green dye based fluorescence assay; type: subcellular
# Cell membrane [13] = assay: Induction of inner membrane permeabilization in methicillin-resistant Staphylococcus aureus NCTC 10442 measured for 1 hr by SYTOX green dye based fluorescence assay; type: subcellular
# Cell membrane [14] = assay: Disruption of cell membrane integrity in Staphylococcus aureus ATCC 29213 assessed as increase in red fluorescence at 8 times MIC measured after 2 hrs by Syto9/propidium iodide Live/dead staining based laser confocal microscopic analysis; type: subcellular
# Cell membrane [15] = assay: Induction of cell membrane damage in Staphylococcus aureus ATCC 29213 assessed as wrinkle formation at 8 times MIC measured after 2 hrs by SEM analysis; type: subcellular
# Cell membrane [16] = assay: Induction of cell membrane damage in Staphylococcus aureus ATCC 29213 assessed as membrane perforation at 8 times MIC measured after 2 hrs by SEM analysis
# Cell membrane [17] = assay: Induction of cell membrane damage in Staphylococcus aureus ATCC 29213 assessed as membrane perforation at 8 times MIC measured after 2 hrs by TEM analysis
# Staphylococcus aureus [18] = assay: Antibacterial activity against Staphylococcus aureus ATCC 29213 measured after 24 hrs in presence of LTA by microplate reader analysis; type: functional
# Staphylococcus aureus [19] = assay: Antibacterial activity against methicillin-resistant Staphylococcus aureus NCTC 10442 measured after 24 hrs in presence of LTA by microplate reader analysis; type: functional
# Bacillus subtilis [20] = assay: Displacement of BODIPYTM-TR-cadaverine from Bacillus subtilis LTA at MIC measured after 30 mins by fluorescence assay relative to control
# Bacillus subtilis [21] = assay: Displacement of BODIPYTM-TR-cadaverine from Bacillus subtilis LTA at 2 times MIC measured after 30 mins by fluorescence assay relative to control
# Bacillus subtilis [22] = assay: Displacement of BODIPYTM-TR-cadaverine from Bacillus subtilis LTA at 4 times MIC measured after 30 mins by fluorescence assay relative to control
# Bacillus subtilis [23] = assay: Displacement of BODIPYTM-TR-cadaverine from Bacillus subtilis LTA at 8 times MIC measured after 30 mins by fluorescence assay relative to control
# [24] = Cytotoxicity against mouse corneal epithelial cells assessed as cell viability at […] ug/ml measured after 24 hrs by CCK8 assay relative to control; type: cell-based; conditions: dose 1.56 µg/ml, read-out: Activity
# [25] = Cytotoxicity against mouse corneal epithelial cells assessed as cell viability at 3.125 ug/ml measured after 24 hrs by CCK8 assay relative to control; type: cell-based; conditions: at 3.125 µg/mL, read-out: Activity
# [26] = Cytotoxicity against mouse corneal epithelial cells assessed as cell viability at 6.25 ug/ml measured after 24 hrs by CCK8 assay relative to control; type: cell-based; conditions: at 6.25 µg/mL, read-out: Activity
# [27] = Cytotoxicity against mouse corneal epithelial cells assessed as cell viability at 12.5 ug/ml measured after 24 hrs by CCK8 assay relative to control; type: cell-based; conditions: at 12.5 µg/mL, read-out: Activity
# [28] = Cytotoxicity against mouse corneal epithelial cells assessed as cell viability […] measured after 24 hrs by CCK8 assay relative to control; type: cell-based; conditions: dose 25 µg/ml, read-out: Activity
# [29] = Cytotoxicity against mouse corneal epithelial cells assessed as cell viability at 50 ug/ml measured after 24 hrs by CCK8 assay relative to control; type: cell-based; conditions: at 50 µg/mL, read-out: Activity
# [30] = Cytotoxicity against mouse corneal epithelial cells assessed as cell viability at 100 ug/ml measured after 24 hrs by CCK8 assay relative to control; type: cell-based; conditions: at 100 µg/mL, read-out: Activity
# [31] = Cytotoxicity against mouse J774.A1 cells assessed as cell viability at […] ug/ml measured after 24 hrs by CCK8 assay relative to control; type: cell-based; conditions: dose 1.56 µg/ml, read-out: Activity
# [32] = Cytotoxicity against mouse J774.A1 cells assessed as cell viability at 3.125 ug/ml measured after 24 hrs by CCK8 assay relative to control; type: cell-based; conditions: at 3.125 µg/mL, read-out: Activity
# [33] = Cytotoxicity against mouse J774.A1 cells assessed as cell viability at 6.25 ug/ml measured after 24 hrs by CCK8 assay relative to control; type: cell-based; conditions: at 6.25 µg/mL, read-out: Activity
# [34] = Cytotoxicity against mouse J774.A1 cells assessed as cell viability at 12.5 ug/ml measured after 24 hrs by CCK8 assay relative to control; type: cell-based; conditions: at 12.5 µg/mL, read-out: Activity
# [35] = Cytotoxicity against mouse J774.A1 cells assessed as cell viability at 25 ug/ml measured after 24 hrs by CCK8 assay relative to control; type: cell-based; conditions: at 25 µg/mL, read-out: Activity
# [36] = Cytotoxicity against mouse J774.A1 cells assessed as cell viability at 50 ug/ml measured after 24 hrs by CCK8 assay relative to control; type: cell-based; conditions: at 50 µg/mL, read-out: Activity
# [37] = Cytotoxicity against mouse J774.A1 cells assessed as cell viability at 100 ug/ml measured after 24 hrs by CCK8 assay relative to control; type: cell-based; conditions: at 100 µg/mL, read-out: Activity
# [38] = Cytotoxicity against mouse corneal epithelial cells assessed as reduction in cell viability measured after 24 hrs by CCK8 assay; type: cell-based
# [39] = Cytotoxicity against mouse J774.A1 cells assessed as reduction in cell viability measured after 24 hrs by CCK8 assay; type: cell-based
# Staphylococcus aureus [40] = assay: (§1) Antibacterial activity against Staphylococcus aureus ATCC 29213 infected in cyclophosphamide-immunosuppressed C57BL6 mouse cornea assessed as log reduction in corneal bacterial count at 0.5% administered as topical solution for 4 times per day for 3 days and measured post-last dose by standard plate counting method; type: functional; conditions: time 3 day
# [41] = Toxicity in C57BL6 mouse assessed as corneal damage at 0.5% administered as topical solution for 4 times per day for 3 days and measured post-last dose by fluorescein sodium staining based slit-lamp biomicroscopic method; conditions: in vivo, topical_or_ocular, 72 h, time 3 day
# Staphylococcus aureus [42] = assay: Bactericidal activity against Staphylococcus aureus ATCC 29213 assessed as log reduction in bacterial count at 8 times MIC preincubated for 4 hrs followed by replating on MHA medium measured after 24 hrs by time kill assay; type: functional; conditions: time 28 hrs
# Staphylococcus aureus [43] = assay: as §1, with “5%” for “0.5%”; type: functional; conditions: time 3 day
smiles,measurement,setting,value
CC(C)=CCn1c2ccccc2c2c(OCC(O)CNC(=N)N)cccc21 (centres undefined),MIC,Staphylococcus aureus [1],1.56 µg/mL
same,MIC,Staphylococcus aureus [2],0.78 µg/mL
same,MIC,Staphylococcus aureus [3],1.56 µg/mL
same,HC50 at 1 h,[4],> 200 µg/mL
same,selectivity ratio,[5],> 128
same,selectivity ratio,[6],> 128
same,selectivity ratio,[7],> 128
same,"hemolysis at 1 h, 200 ug/ml",[8],3.5%
same,log(activity),Staphylococcus aureus [9],3.21
same,log(activity),Staphylococcus aureus [10],3.45
same,Activity,Staphylococcus aureus [11],Active
same,Activity,Cell membrane [12],Dose-dependent effect
same,Activity,Cell membrane [13],Dose-dependent effect
same,Activity,Cell membrane [14],Active
same,Activity,Cell membrane [15],Active
same,Activity,Cell membrane [16],Active
same,Activity,Cell membrane [17],Active
same,MIC,Staphylococcus aureus [18],1.56 µg/mL
same,MIC,Staphylococcus aureus [19],1.56 µg/mL
same,inhibition,Bacillus subtilis [20],12.9%
same,inhibition,Bacillus subtilis [21],22.3%
same,inhibition,Bacillus subtilis [22],28.8%
same,inhibition,Bacillus subtilis [23],35.8%
same,"viability at 24 h, 1.56 ug/ml",[24],88.3%
same,"viability at 24 h, 3.125 ug/ml",[25],87.9%
same,"viability at 24 h, 6.25 ug/ml",[26],85.3%
same,"viability at 24 h, 12.5 ug/ml",[27],75.1%
same,viability at 24 h,[28],34.1%
same,"viability at 24 h, 50 ug/ml",[29],8.52%
same,"viability at 24 h, 100 ug/ml",[30],6.65%
same,"viability at 24 h, 1.56 ug/ml",[31],96.3%
same,"viability at 24 h, 3.125 ug/ml",[32],95%
same,"viability at 24 h, 6.25 ug/ml",[33],86.2%
same,"viability at 24 h, 12.5 ug/ml",[34],80.5%
same,"viability at 24 h, 25 ug/ml",[35],78.2%
same,"viability at 24 h, 50 ug/ml",[36],28.1%
same,"viability at 24 h, 100 ug/ml",[37],20.5%
same,CC50 at 24 h,[38],23.8 µg/mL
same,CC50 at 24 h,[39],37.2 µg/mL
same,log(activity),Staphylococcus aureus [40],4.17
same,Activity,[41],Non-Toxic
CN[C@H](CC(C)C)C(=O)N[C@H]1C(=O)N[C@@H](CC(N)=O)C(=O)N[C@H]2C(=O)N[C@H]3C(=O)N[C@H](C(=O)N[C@H](C(=O)O)c4cc(O)cc(O)c4-c4cc3ccc4O)[C@H](O)c3ccc(c(Cl)c3)Oc3cc2cc(c3O[C@@H]2O[C@H](CO)[C@@H](O)[C@H](O)[C@H]2O[C@H]2C[C@](C)(N)[C@H](O)[C@H](C)O2)Oc2ccc(cc2Cl)[C@H]1O [VANCOMYCIN],MIC,Staphylococcus aureus [1],0.78 µg/mL
same,MIC,Staphylococcus aureus [2],1.56 µg/mL
same,MIC,Staphylococcus aureus [3],1.56 µg/mL
same,log(activity),Staphylococcus aureus [10],0.71
same,log(activity),Staphylococcus aureus [42],1.45
same,"viability at 24 h, 1.56 ug/ml",[31],101%
same,"viability at 24 h, 3.125 ug/ml",[32],99.8%
same,"viability at 24 h, 6.25 ug/ml",[33],99.5%
same,"viability at 24 h, 12.5 ug/ml",[34],98.2%
same,"viability at 24 h, 25 ug/ml",[35],92%
same,"viability at 24 h, 50 ug/ml",[36],91%
same,"viability at 24 h, 100 ug/ml",[37],89.9%
same,log(activity),Staphylococcus aureus [43],3.99
